Results as given in PMC6258903 (Nature, 2014).

How the values were obtained:
[1] = tested on: 95 different cancer cell lines; test: Proliferation assay on a panel of cancer cell lines; type: cell-based
Axl = target: T1, Axl (Homo sapiens, UniProt P30530); test: Tracer-based kinase binding assay
T1 sequence (P30530 26-894): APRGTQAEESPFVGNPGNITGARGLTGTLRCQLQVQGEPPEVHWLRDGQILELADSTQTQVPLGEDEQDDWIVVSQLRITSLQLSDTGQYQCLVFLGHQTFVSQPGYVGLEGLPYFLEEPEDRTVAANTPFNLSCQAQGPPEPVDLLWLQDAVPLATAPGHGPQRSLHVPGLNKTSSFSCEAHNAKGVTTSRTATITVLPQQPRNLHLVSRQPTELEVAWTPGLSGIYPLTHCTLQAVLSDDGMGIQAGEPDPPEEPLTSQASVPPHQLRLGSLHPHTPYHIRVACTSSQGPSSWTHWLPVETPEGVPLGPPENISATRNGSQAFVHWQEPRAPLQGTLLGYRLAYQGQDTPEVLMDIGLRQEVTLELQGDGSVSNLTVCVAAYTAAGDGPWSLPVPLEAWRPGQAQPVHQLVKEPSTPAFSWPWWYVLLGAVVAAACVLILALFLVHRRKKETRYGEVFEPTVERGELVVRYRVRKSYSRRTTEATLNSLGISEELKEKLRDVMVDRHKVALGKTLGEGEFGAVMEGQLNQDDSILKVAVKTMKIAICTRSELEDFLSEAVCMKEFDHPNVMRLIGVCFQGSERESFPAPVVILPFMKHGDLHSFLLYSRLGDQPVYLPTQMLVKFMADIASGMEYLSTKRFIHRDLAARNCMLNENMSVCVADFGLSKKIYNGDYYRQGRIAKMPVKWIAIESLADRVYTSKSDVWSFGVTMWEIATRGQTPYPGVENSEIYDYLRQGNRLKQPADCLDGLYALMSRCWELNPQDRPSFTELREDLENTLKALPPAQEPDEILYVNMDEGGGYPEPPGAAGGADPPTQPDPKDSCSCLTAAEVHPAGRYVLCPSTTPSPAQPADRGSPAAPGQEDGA

[2] = Prothrombine time and bleeding in warfarin-treated mice
RMA-S cells = test: In vivo NK cell cytotoxicity towards RMA-S cells; details: Cbl-b+/+ mice treated for 7 days before inoculation
RMA-Rae1 cells = test: In vivo NK cell cytotoxicity towards RMA-Rae1 cells; details: warfarin, Cbl-b+/+ mice treated for 7 days before inoculation
B16F10 melanoma = test: B16F10 metastatic melanoma model, low dose warfarin in drinking water; type: in vivo, mice; details: for melanoma metastases to the lungs and distal organs: low dose warfarin 0.5mg/l in drinking water

SMILES: Cc1nc(Nc2ncc(C(=O)Nc3c(C)cccc3Cl)s2)cc(N2CCN(CCO)CC2)n1 [dasatinib]
- IC50 ([1]; read-out: IC50 proliferation, non-specific kinase inhibitors): < 100 nM

SMILES: CCN(CC)CCNC(=O)c1c(C)[nH]c(/C=C2\C(=O)Nc3ccc(F)cc32)c1C [sunitinib]
- inhibitory activity of reference compounds in the Axl HTRF assay (Axl): showed inhibitory activities as expected

SMILES: CCOc1ccn(-c2ccc(F)cc2)c(=O)c1C(=O)Nc1ccc(Oc2ccnc(N)c2Cl)c(F)c1 [BMS-777607/ASLAN002]
- inhibitory activity of reference compounds in the Axl HTRF assay (Axl): showed inhibitory activities as expected

SMILES: CN[C@@H]1C[C@H]2O[C@@](C)([C@@H]1OC)n1c3ccccc3c3c4c(c5c6ccccc6n2c5c31)C(=O)NC4 [staurosporine]
- inhibitory activity of reference compounds in the Axl HTRF assay (Axl): showed inhibitory activities as expected

SMILES: CC(=O)CC(c1ccccc1)c1c(O)c2ccccc2oc1=O (stereo not drawn) [warfarin]
- prothrombine time / coagulopathy ([2]; 0.5mg/l in drinking water for 21 days): does not cause a coagulopathy
- bleeding ([2]; warfarin-treated mice compared to vehicle controls): never observed neither spontaneous nor excessive bleeding
- in vivo NK cell cytotoxicity towards RMA-S (RMA-S cells): enhanced in vivo NK cell cytotoxicity
- in vivo NK cell cytotoxicity towards RMA-Rae1 (RMA-Rae1 cells): enhanced in vivo NK cell cytotoxicity
- melanoma metastases to the lungs and distal organs (B16F10 melanoma; Cbl-b defective mice): had no apparent effect
- melanoma metastases to the lungs and distal organs (B16F10 melanoma; Cbl-b+/+ and Cbl-b+/- mice, day +16): markedly reduced melanoma metastases
- metastatic melanomas (B16F10 melanoma; low dose warfarin, absence of NK1.1+ cells): abolished the effects of warfarin

SMILES: Cc1ccc(NC(=O)c2ccc(CN3CCN(C)CC3)cc2)cc1Nc1nccc(-c2cccnc2)n1 [imatinib]
- proliferation inhibition profile, specific kinase blockers ([1]; same panel, e.g. K562 cells): inhibit proliferation of only a few cell lines
